Where a name gives a salt, the structure may show the parent alone. Read-outs that look alike come from different tables or passages of the source.
What was measured:
[1] = system: Mycobacterium tuberculosis H37Ra; test: Mycobacterium tuberculosis growth inhibition assay (microtiter dilution, resazurin reduction); format: cell-based; settings: 7H9 broth, 9 days + 24 h resazurin, lowest concentration inhibiting resazurin reduction by >70%, several symbols in a cell = repeat determinations
Outline: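 M. tuberculosis H37Ra at ~1×10^6 cells/mL in 7H9 broth plus 10% ADC, exposed to 2-fold serial dilutions (7 or 11 steps) at 37 °C for 9 days. Resazurin then added, fluorescence (492/595 nm) read at baseline and after 24 h; MIC = lowest concentration inhibiting resazurin reduction >70% versus DMSO.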

[2] = target: T1, PknB (Mycobacterium tuberculosis, UniProt P9WI81); test: biochemical; set-up: species or system M. tuberculosis; settings: for Ki: read-out: Ki Values
T1 construct: made in house

[3] = 3 nM PknB, 6 uM GarA, 3 μM ATP, 30 min, competitive tight-binding fit, several symbols in a cell = repeat determinations

T1 sequence (P9WI81 whole entry): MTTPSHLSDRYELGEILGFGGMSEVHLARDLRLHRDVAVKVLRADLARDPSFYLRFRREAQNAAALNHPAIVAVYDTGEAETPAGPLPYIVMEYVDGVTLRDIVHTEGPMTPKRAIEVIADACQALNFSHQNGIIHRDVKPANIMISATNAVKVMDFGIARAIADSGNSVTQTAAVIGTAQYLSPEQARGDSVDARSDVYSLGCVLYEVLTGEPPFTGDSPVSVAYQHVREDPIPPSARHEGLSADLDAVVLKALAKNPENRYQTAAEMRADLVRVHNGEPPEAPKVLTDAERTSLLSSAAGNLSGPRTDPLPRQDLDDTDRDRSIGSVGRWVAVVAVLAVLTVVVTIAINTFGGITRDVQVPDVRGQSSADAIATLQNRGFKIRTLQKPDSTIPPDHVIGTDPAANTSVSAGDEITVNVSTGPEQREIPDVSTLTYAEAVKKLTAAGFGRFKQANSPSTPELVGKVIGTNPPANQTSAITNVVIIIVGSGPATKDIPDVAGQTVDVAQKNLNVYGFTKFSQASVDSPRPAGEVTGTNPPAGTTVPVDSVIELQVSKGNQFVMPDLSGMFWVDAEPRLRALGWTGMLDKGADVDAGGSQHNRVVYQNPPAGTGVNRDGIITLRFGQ

Row | Structure (SMILES) | MIC values [1] | Ki Values [2] | Ki [2, 3] | Ki Values [2, 3]
1 | C#Cc1cnc(-c2ccc(CN)s2)nc1Nc1cc(C2CC2)[nH]n1 [Compound 167, 2-(5-(aminomethyl)thiophen-2-yl)-N-(5-cyclopropyl-1H-pyrazol-3-yl)-5-ethynylpyrimidin-4-amine hydrochloride] | B++ | A, A, A, B** | – | –
2 | Cc1cnc(-c2ccc([C@@H](C)O)s2)nc1Nc1cc(C2CC2)[nH]n1 [Compound 145, (R)-1-(5-(4-(5-cyclopropyl-1H-pyrazol-3-ylamino)-5-methylpyrimidin-2-yl)thiophen-2-yl)ethanol] | B++, B+ | – | 0.05 to 0.1 µM | –
3 | C=C(Cl)c1cnc(-c2ccccc2)nc1Nc1cc(C2CC2)[nH]n1 [Compound 21, 5-(1-chlorovinyl)-N-(5-cyclopropyl-1H-pyrazol-3-yl)-2-phenyl-pyrimidin-4-amine] | B+, B, B | – | 0.5 to 1 µM | –
4 | O=S(=O)(O)c1ccc(-c2ncc(Cl)c(Nc3cc(C4CC4)[nH]n3)n2)s1 [Compound 306, 5-[5-chloro-4-[(5-cyclopropyl-1H-pyrazol-3-yl)amino]-pyrimidin-2-yl]thiophene-2-sulfonic acid] | B+ | – | 0.01 to 0.05 µM | –
5 | CC(O)c1ccc(-c2ncc(F)c(Nc3cc(C4CC4)[nH]n3)n2)s1 (stereo in doubt) [Compound 147, (R)-1-(5-(4-(5-cyclopropyl-1H-pyrazol-3-ylamino)-5-fluoropyrimidin-2-yl)thiophen-2-yl)ethanol] | B++ | – | 0.01 to 0.05 µM | –
6 | C#Cc1cnc(C2=CCN(C(=O)OC(C)(C)C)CC2)nc1Nc1cc(C2CC2)[nH]n1 [Compound 250, Tert-butyl 4-(4-(5-cyclopropyl-1H-pyrazol-3-ylamino)-5-ethynylpyrimidin-2-yl)-5,6-dihydropyridine-1(2H)-carboxylate] | B+ | – | 0.1 to 0.5 µM | –
7 | C#Cc1cnc(-c2ccc(S(N)(=O)=O)s2)nc1Nc1cc(C2CC2)n[nH]1 [Compound 114, 5-(4-(3-Cyclopropyl-1H-pyrazol-5-ylamino)-5-ethynylpyrimidin-2-yl)thiophene-2-sulfonamide] | A+, A | – | 0.001 to 0.01 µM | –
8 | C#Cc1cnc(-c2ccc(C(C)(C)O)s2)nc1Nc1cc(C2CC2)[nH]n1 [Compound 180, 2-(5-(4-(5-Cyclopropyl-1H-pyrazol-3-ylamino)-5-ethynylpyrimidin-2-yl)thiophen-2-yl)propan-2-ol] | B++ | – | 0.01 to 0.05 µM | –
9 | COc1cnc(N2CCN(C)CC2)nc1Nc1cc(C2CC2)[nH]n1 [Compound 67, N-(5-cyclopropyl-1H-pyrazol-3-yl)-5-methoxy-2-(4-methylpiperazin-1-yl)-pyrimidin-4-amine] | A+ | – | 0.01 to 0.05 µM | –
10 | Cc1cnc(-c2ccc(Cl)c(C(N)=O)c2)nc1Nc1cc(C2CC2)[nH]n1 [Compound 32, 2-chloro-5-[4-[(5-cyclopropyl-1H-pyrazol-3-yl)amino]-5-methyl-pyrimidin-2-yl]-benzamide] | B+ | – | 0.05 to 0.1 µM | –
11 | NS(=O)(=O)c1ccc(-c2ccc([N+](=O)[O-])c(Nc3cc(C4CC4)n[nH]3)n2)s1 [Compound 275, 5-[6-[(5-cyclopropyl-2H-pyrazol-3-yl)amino]-5-nitro-2-pyridyl]thiophene-2-sulfonamide] | B++ | – | 0.001 to 0.01 µM | –
12 | O=S(=O)(NCCO)c1ccc(Nc2nccc(Nc3cc(C4CC4)n[nH]3)n2)cc1 [Compound 83, 4-[[4-[(5-cyclopropyl-2H-pyrazol-3-yl)amino]pyrimidin-2-yl]amino]-N-(2-hydroxyethyl)benzenesulfonamide] | B+ | – | – | A**, A*
13 | OC1/C=C\c2c(n[nH]c2C2CC2)Nc2nc(ncc2Cl)-c2ccccc21 (stereo not shown) [Compound 232, chloro-cyclopropyl-BLAHol] | B, C | – | > 4 µM | –
14 | C#Cc1cnc(-c2ccc(Cl)c(C(N)=O)c2)nc1Nc1cc(C2CC2)n[nH]1 [Compound 128, 2-chloro-5-(4-(3-cyclopropyl-1H-pyrazol-5-ylamino)-5-ethynylpyrimidin-2-yl)benzamide] | B+, C | – | 0.01 to 0.05 µM | –
